The source of these data is patent US20190284168A1, “PYRAZOLE DERIVATIES AS SGC STIMULATORS” (IRONWOOD PHARMACEUTICALS, INC., priority 2014, published 2019).

In data set [1] the test system is lambs with acute pulmonary hypertension. The conditions noted are these: cited from earlier work; for effect on mean arterial pressure / pulmonary vasodilation / transpulmonary cGMP release / systemic arterial oxygenation: inhaled microparticles, awake lambs; for effect on mean arterial pressure / pulmonary vasodilation / transpulmonary cGMP release: U-46619 infusion.

In data set [2] the target is T1, soluble guanylate cyclase (sGC) (Homo sapiens, UniProt Q02108+Q02153).
T1 construct: endogenously expressing soluble guanylate cyclase (sGC); endogenous in cells; host or cells: HEK293
T1 sequence (Q02153 1-619): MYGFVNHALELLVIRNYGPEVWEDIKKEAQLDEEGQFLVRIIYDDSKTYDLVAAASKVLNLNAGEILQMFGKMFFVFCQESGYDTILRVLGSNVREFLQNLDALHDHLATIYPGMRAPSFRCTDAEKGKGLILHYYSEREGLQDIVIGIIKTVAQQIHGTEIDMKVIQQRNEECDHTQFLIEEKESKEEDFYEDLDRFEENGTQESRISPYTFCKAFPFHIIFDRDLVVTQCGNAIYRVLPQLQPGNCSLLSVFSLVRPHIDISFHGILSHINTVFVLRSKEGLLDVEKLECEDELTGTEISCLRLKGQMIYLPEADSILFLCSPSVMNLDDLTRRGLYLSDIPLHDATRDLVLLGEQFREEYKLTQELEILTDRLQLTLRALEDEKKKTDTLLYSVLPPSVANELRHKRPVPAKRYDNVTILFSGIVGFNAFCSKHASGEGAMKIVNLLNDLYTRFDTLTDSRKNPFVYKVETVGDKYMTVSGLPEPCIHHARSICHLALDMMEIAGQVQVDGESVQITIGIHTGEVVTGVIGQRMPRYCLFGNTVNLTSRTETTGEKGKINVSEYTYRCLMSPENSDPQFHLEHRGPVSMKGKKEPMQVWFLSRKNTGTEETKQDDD
T1 sequence (Q02108 1-690): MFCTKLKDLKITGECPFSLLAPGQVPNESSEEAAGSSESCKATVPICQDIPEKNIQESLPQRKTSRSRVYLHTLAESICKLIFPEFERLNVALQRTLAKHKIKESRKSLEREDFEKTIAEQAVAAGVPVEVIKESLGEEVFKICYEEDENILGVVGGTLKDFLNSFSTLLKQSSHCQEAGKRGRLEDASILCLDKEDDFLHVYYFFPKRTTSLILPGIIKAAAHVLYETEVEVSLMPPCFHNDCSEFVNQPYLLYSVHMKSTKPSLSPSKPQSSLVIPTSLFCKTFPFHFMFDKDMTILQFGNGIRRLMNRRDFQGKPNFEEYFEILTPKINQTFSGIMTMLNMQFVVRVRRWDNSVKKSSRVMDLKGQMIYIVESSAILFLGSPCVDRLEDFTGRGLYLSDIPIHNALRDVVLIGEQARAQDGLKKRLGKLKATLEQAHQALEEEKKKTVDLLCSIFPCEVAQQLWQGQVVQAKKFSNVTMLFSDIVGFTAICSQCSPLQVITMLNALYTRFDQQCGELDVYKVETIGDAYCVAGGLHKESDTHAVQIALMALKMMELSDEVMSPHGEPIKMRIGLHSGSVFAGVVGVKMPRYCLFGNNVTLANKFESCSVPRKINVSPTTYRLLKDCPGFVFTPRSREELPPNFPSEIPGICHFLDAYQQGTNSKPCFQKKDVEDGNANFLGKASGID
As to the kind of experiment: sGC-HEK-cGMP assay with LC/MS detection. The format is cell-based. The note with it: HEK293 whole cells, LC/MS detection of cGMP, 10 μM DETA-NONOate; 50% of high control response (30 μM Compound Y); read-out: Absolute EC50 (nM)- binned (~).
Protocol: Human embryonic kidney cells (HEK293), endogenously expressing soluble guanylate cyclase (sGC), were used to evaluate the activity of test compounds. Compounds stimulating the sGC enzyme should cause an increase in the intracellular concentration of cGMP. HEK 293 cells were seeded in Dulbecco's Modification of Eagle's Medium supplemented with fetal bovine serum (10% final) and penicillin (100 U/mL)/streptomycin (100 μg/mL) in a 50 μL volume at a density of 1.5×10^4 cells/well in a poly-D-lysine coated 384 well flat bottom plate. Cells were incubated overnight at 37° C. in a humidified chamber with 5% CO2. Medium was aspirated and cells were washed with 1× Hank's Buffered Saline Salt Solution (50 μL). Cells were then incubated for 15 minutes at 37° C. with 50 μL of a 0.5 mM 3-isobutyl-1-methylxanthine (IBMX) solution.
were then added to the assay mixture and the resulting mixture incubated at 37° C. for 20 minutes. After the 20 minute incubation, the assay mixture was aspirated and 10% acetic acid containing 150 ng/mL+3-cGMP (internal standard for LCMS) (50 μL) was added to the cells. The plate was incubated at 4° C. for 30 minutes in the acetic acid solution to stop the reaction and lyse the cells. The plates were then centrifuged at 1,000 g for 3 minutes at 4° C. and the supernatant transferred to a clean reaction plate for LCMS analysis.
cGMP concentrations were determined from each sample using the LCMS conditions below (Table 2) and calculated standard curve.
Data were fit using a 4-parameter fit (log(agonist) vs. response—variable slope) using GraphPad Prism Software v.5. n=2 for all compounds. […] Compounds failing to elicit a minimum response of 50% are reported as >30 μM.

In data set [3] the target is T2, human recombinant soluble guanylate cyclase enzyme α1β1 (Homo sapiens, UniProt Q02108+Q02153).
T2 construct: purchased Enzo Life Sciences ALX-201-177
T2 sequence (Q02108 1-690): T1 sequence (Q02108 1-690)
T2 sequence (Q02153 1-619): T1 sequence (Q02153 1-619)
The data set is described as follows: Purified human recombinant sGC α1β1 enzyme assay in the presence of DETA-NONOate (cGMP HTRF). Type of data set: biochemical. The conditions noted are these: 30 uM DETA NONOate; 50% of maximal response of 30 uM Compound Y; read-out: sGC_Enz_HTRF_a1b1 EC50/IC50 Abs (Norm) (nM) Binned. On the procedure: Purified human recombinant soluble guanylate cyclase enzyme α1β1 (h sGC) obtained from Enzo Life Sciences (P/N: ALX-201-177) was used to evaluate the activity of test compounds. The assay reactions contained 0.1 M Tris (pH 8.0), 0.5 mg/mL BSA, 2 mM DTT, 4 mM MgCl2, 30 uM DETA NONOate (Enzo Life Science P/N: ALX-430-014), and 12.5 ng/ml human soluble guanylate cyclase enzyme. […] Guanosine 5'-triphosphate (Sigma-Aldrich P/N: […]) was added to a final concentration of 300 μM and enzyme reactions were incubated (100 μL, 384-well plate format) at 37° C. for 20 minutes. The controls contained 3% DMSO (low control), or 30 uM of Compound Y (high control). After the 20 minute incubation, the reaction was stopped with the addition of 100 μL of ice cold 20% acetic acid. cGMP concentrations in all samples were determined using the cGMP HTRF (Cisbio P/N: 62GM2PEC) assay per manufacturer's instructions. A cGMP standard curve was fit using a 4-parameter fit (log(inhibitor) vs. response-variable slope) using GraphPad Prism Software v.6. Samples were diluted appropriately to ensure that values fell within the linear range of the standard curve. Data were fit using a 4-parameter fit (log(agonist) vs. response-variable slope) using GraphPad Prism Software v.6. The EC50 was interpolated from the curve fit and is defined as the concentration at which the compound elicits 50% of the maximal response of the 30 uM of Compound Y, the high control compound.
A general note: Time-resolved FRET reads energy transfer from a long-lived donor to a nearby acceptor.

Data set [4] concerns Guinea pig tracheal smooth muscle. The data set is described as follows: Electrical field stimulated guinea pig tracheal smooth muscle contraction. The note with it: guinea pig tracheal strips, sub-maximal EFS; 95% CI 0.78-0.94; read-out: IC50, inhibition of EFS-induced tracheal smooth muscle contraction. The text has this: It is possible to assess the bronchodilating effects of sGC stimulators by using the system described below. This system allows us to determine potency, efficacy and duration of action of several sGC stimulators, as well as to assess potential side effects such as blood pressure, or heart rate changes.
Animals: Guinea pig, Dunkin Hartley, male, Full barrier-bred and certified free of specific micro-organisms on receipt 525-609 g on the experimental day, Harlan UK Ltd. Guinea pigs are housed in a group of 4 in solid-bottomed cages with Gold Flake bedding in a controlled environment (airflow, temperature and humidity). Food (FD1, Special Diet Services) and water are provided ad libitum.
On each experimental day, a guinea pig is killed by exposure to a rising concentration of CO2 and the trachea removed. […] Tissues are washed with Kreb's buffer and stimulated using the previously determined sub-maximal voltage for 1 hour to establish a stable baseline contraction prior to assessment of compound activity.
A cumulative dose response curve (DRC) to each test substance is then performed and changes in smooth muscle contraction measured. The effect of each test substance in each experiment is expressed as a percentage inhibition of the baseline contraction, normalized to the relevant vehicle controls. […]

The subject of another data set is sickle mice. The conditions noted are these: oral, high doses; cited from earlier work.
For another data set, the system named is mdx mouse. The conditions noted are these: cited from earlier work.
The test system of data set [5] is sickle cell disease patients with severe PHT. The note with it: cited from earlier work.
Data set [6] concerns adult sickle cell disease patients. The conditions noted are these: infusions; cited from earlier work.
Data set [7] has as its system adult patients with sickle cell disease. The note with it: acute VOE, vs placebo; cited from earlier work.

One may read the IC50 as the midpoint of a concentration-inhibition curve.

For the compound `Nc1nc(-c2nn(Cc3ccccc3F)c3ncccc23)ncc1C1CC1` [BAY 41-2272], in data set [1], the “effect on mean arterial pressure” value is “without significant effect”, the pulmonary vasodilation entry is reported as “dose dependent pulmonary vasodilation” and the “transpulmonary cGMP release” value is “increased”.
As for `Nc1nc(-c2nn(Cc3ccccc3F)c3ncccc23)nc(N)c1N1CCOCC1` [BAY 41-8543], the “magnitude and duration of pulmonary vasodilation induced by iNO” value in data set [1] (after inhaling microparticles, combined with iNO) is recorded as “augmented”. Besides, in data set [1], the “effect on mean arterial pressure” value was “without significant effect”, the pulmonary vasodilation entry was “dose dependent pulmonary vasodilation”, the “transpulmonary cGMP release” value is “increased” and the systemic arterial oxygenation result is on record as “increased”.
Regarding `O=C(O)CCCCN(CCc1ccccc1OCc1ccc(CCc2ccccc2)cc1)Cc1ccc(C(=O)O)cc1` [BAY 58-2667], in data set [1] (inhaled microparticles after ODQ), the “pulmonary vasodilation and transpulmonary cGMP release after treatment with ODQ” value was “greatly enhanced”. Moreover, in data set [1], the “effect on mean arterial pressure” value is listed as “without significant effect”, the pulmonary vasodilation result was “dose dependent pulmonary vasodilation”, the “transpulmonary cGMP release” value was “increased” and the systemic arterial oxygenation entry is listed as “increased”.
On to `Oc1nnc2n1CCN(c1nc(-c3cc(-c4ccon4)n(Cc4ccccc4F)n3)ncc1F)C2` [Compound 44], for which the EC50 in data set [2] is < 100 nM; in [3] it was 100 to 1000 nM.
Taken in the same sequence, the figures for `O=C(Cc1c[nH]nc1O)Nc1ccnc(-c2cc(-c3ccon3)n(Cc3ccccc3F)n2)n1` [Compound 45] were > 1000 nM and ≤ 1000 nM.
On the same counts, the results for `CS(=O)(=O)C1(C(=O)Nc2ccnc(-c3cc(-c4ccon4)n(Cc4ccccc4F)n3)n2)CC1` [Compound 50] are > 1000 nM and ≤ 1000 nM.
As to `Cn1c(=O)c(CC(N)=O)cn1-c1nc(-c2cc(-c3ccon3)n(Cc3ccccc3F)n2)ncc1F` [Compound 56], the EC50 was > 1000 nM in data set [2] and ≤ 1000 nM in data set [3].
On the same counts, the results for `O=C(O)C1Cn2c(nnc2C(F)(F)F)CN1c1nc(-c2cc(-c3ccon3)n(Cc3ccccc3F)n2)ncc1F` (stereo not drawn) [Compound 62] are > 1000 nM and ≤ 1000 nM.
Consider `CC(=O)c1cc(-c2ncc(F)c(N3CCS(=O)(=O)CC3)n2)nn1Cc1ccccc1F` [Compound 78], for which the EC50 in data set [2] was > 1000 nM; in data set [3], ≤ 1000 nM.
On the same counts, the results for `CC(=O)c1cc(-c2ncc(F)c(O)n2)nn1Cc1cccc(F)c1F` [Compound 83] are > 1000 nM and ≤ 1000 nM.
Taken in the same sequence, the figures for `CC(=O)c1cc(-c2ncc(F)c(NCC(=O)O)n2)nn1Cc1ccccc1F` [Compound 86] were > 1000 nM and ≤ 1000 nM.
On the same counts, the results for `C[C@](N)(CNc1nc(-c2cc(-c3ccon3)n(Cc3ccccc3F)n2)ncc1F)C(F)(F)F` [Compound 108] are 100 to 1000 nM and 100 to 1000 nM.
In the case of `CC(C)[N+]1(C)[C@@H]2CC[C@H]1CC(OC(=O)C(CO)c1ccccc1)C2` (stereo partly drawn) [Ipratropium bromide, ipratropium bromide], the IC50 in data set [4] amounted to 0.86 nM.
As for `N=C(N)NCCC[C@H](N)C(=O)O` [L-arginine, arginine], the “Gardos channel activity, dense cell formation and hemolysis” value with sickle mice is “decrease Gardos channel activity, dense cell formation and hemolysis”.
As to `O=c1onc2cnc3ccccc3n12` [ODQ, 1H-[1,2,4]oxadiazolo[4,3-a]quinoxalin-1-one], in data set [1] (intravenous administration), the “pulmonary vasodilator effect of iNO” value is “markedly reduced”.
With `CCCc1nn(C)c2c(=O)[nH]c(-c3cc(S(=O)(=O)N4CCN(C)CC4)ccc3OCC)nc12` [sildenafil, Sildenafil], the “muscle ischemia, injury and fatigue after a brief bout of exercise” value in the data set on mdx mouse was “alleviate muscle ischemia, as well as injury and fatigue”. The “serious side effects (VOE, headache, visual disturbance)” value in data set [5] (Walk-PHaSST multicenter trial, stopped prematurely) is listed as “higher frequency of serious side effects”. For the same compound, the “PAP and exercise capacity” value in [5] (sickle cell disease patients with severe PHT) was “improvements in PAP and exercise capacity”.
In the case of `O=NO` [sodium nitrite], in data set [6], the forearm blood flow result is recorded as “enhanced forearm blood flow”.
For nitric oxide [inhaled NO], the pain scores entry in [7] was “significantly reduced pain scores”.
